Results from patent US20130158031A1 (SU ZHOU JING HONG BIOTECH CO., LTD., priority 2011, published 2013).

target: T1, human PDE10A (Homo sapiens, UniProt Q9Y233); assay: PDE10A inhibition assay (IMAP fluorescence polarization); type: biochemical; conditions: hPDE10A enzyme from transfected HEK293 cell lysate, fluorescein-labeled cAMP/cGMP
T1 construct: Full-length human PDE10A cDNA is amplified using PCR; made in house; host or cells: HEK293 cells, transiently transfected with Lipofectamine 2000; supernatant of the sonicated lysate after 10,000 g
T1 sequence (Q9Y233 1-779 isoform Q9Y233-1): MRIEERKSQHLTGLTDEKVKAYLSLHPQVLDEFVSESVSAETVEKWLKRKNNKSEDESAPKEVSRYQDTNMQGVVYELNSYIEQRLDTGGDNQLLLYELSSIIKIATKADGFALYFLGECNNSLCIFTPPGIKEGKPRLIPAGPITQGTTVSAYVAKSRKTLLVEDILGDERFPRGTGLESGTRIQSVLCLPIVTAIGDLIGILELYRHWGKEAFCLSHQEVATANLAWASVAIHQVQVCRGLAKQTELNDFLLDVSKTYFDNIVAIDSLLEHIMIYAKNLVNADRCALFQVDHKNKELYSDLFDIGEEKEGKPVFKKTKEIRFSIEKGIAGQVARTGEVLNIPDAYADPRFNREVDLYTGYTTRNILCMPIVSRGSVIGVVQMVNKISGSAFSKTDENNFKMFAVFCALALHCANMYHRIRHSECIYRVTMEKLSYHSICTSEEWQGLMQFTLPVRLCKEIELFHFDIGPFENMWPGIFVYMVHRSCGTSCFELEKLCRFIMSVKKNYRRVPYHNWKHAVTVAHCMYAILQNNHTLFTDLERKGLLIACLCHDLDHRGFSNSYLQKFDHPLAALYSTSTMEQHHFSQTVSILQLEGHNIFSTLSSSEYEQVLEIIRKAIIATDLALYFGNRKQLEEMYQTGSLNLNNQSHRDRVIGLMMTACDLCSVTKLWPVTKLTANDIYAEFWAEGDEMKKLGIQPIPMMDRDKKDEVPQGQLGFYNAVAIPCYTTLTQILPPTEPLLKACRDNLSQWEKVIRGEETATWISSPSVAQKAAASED
Experimental: Full-length human PDE10A cDNA is amplified using PCR and cloned into pcDNA3.0 vector (Invitrogen). After verified by DNA sequencing, the plasmid is transfected into HEK293 cell using the Lipofectamine 2000 reagent (Invitrogen). Cells are subsequently harvested and sonicated in cell lysis buffer. After centrifuged at 10,000 g for 20 minutes, supernatant containing cytosolic hPDE10A enzyme is collected and stored at −80° C. PDE10A inhibition assay is performed using the IMAP fluorescence polarization assay (Molecular Devices) according to the manufacturer's protocols. A fixed amount of the hPDE10A enzyme is pretreated with the test compounds, following the addition of fluorescein-labeled cAMP/cGMP. After 1 hour incubation, the IMAP binding reagent is added and incubated for another hour. The fluorescence polarization is then quantified with a fluorescence polarization reader Envision from Perkin Elmer. IC50 values are calculated using the Prism program (GraphPad Software).

SMILES	IC50
CCc1cccc(C#Cc2ccc(-c3nn(C)cc3-c3ccncc3)cc2)n1 [Example 4, 2-Ethyl-6-((4-(1-methyl-4-(pyridin-4-yl)-1H-pyrazol-3-yl)phenyl)ethynyl)pyridine]	≤ 10 nM
C(#Cc1ccc2ccccc2n1)c1ccc(-n2nccc2-c2ccncc2)cc1 [Example 22, 2-((4-(5-(pyridin-4-yl)-1H-pyrazol-1-yl)phenyl)ethynyl)quinoline]	≤ 10 nM
C(#Cc1ccc2ccccc2n1)c1ccc(-c2c[nH]nc2-c2ccncc2)cc1 [Example 35, 2-((4-(3-(pyridin-4-yl)-1H-pyrazol-4-yl)phenyl)ethynyl)quinoline]	≤ 10 nM
COCCn1cc(-c2ccncc2)c(-c2ccc(C#Cc3ccc4ccccc4n3)cc2)n1 [Example 16, 2-((4-(1-(2-methoxyethyl)-4-(pyridin-4-yl)-1H-pyrazol-3-yl)phenyl)ethynyl)quinoline]	≤ 10 nM
C(#Cc1ccc2ccccc2n1)c1ccc(-n2cnnc2-c2ccncc2)cc1 [Example 23, 2-((4-(3-(pyridin-4-yl)-4H-1,2,4-triazol-4-yl)phenyl)ethynyl)quinoline]	10 to 100 nM
Cn1cc(-c2ccc(O)cc2)c(-c2ccc(C#Cc3ccc4ccccc4n3)cc2)n1 [Example 34, 4-(1-methyl-3-(4-(quinolin-2-ylethynyl)phenyl)-1H-pyrazol-4-yl)phenol]	10 to 100 nM
CCn1cc(-c2ccncc2)c(-c2ccc(C#Cc3ccc4ccccc4n3)nc2)n1 [Example 31, 2-((5-(1-ethyl-4-(pyridin-4-yl)-1H-pyrazol-3-yl)pyridin-2-yl)ethynyl)quinoline]	≤ 10 nM
FC(F)(F)Cn1cc(-c2ccncc2)c(-c2ccc(C#Cc3ccc4ccccc4n3)cc2)n1 [Example 18]	≤ 10 nM
C(#Cc1ccc2ccccc2n1)c1ccc(-c2n[nH]cc2-c2ccncc2)cc1 [Example 11, 2-((4-(4-(pyridin-4-yl)-1H-pyrazol-3-yl)phenyl)ethynyl)quinoline]	≤ 10 nM
OCCn1cc(-c2ccncc2)c(-c2ccc(C#Cc3ccc4ccccc4n3)cc2)n1 [Example 13, 2-(4-(pyridin-4-yl)-3-(4-(quinolin-2-ylethynyl)phenyl)-1H-pyrazol-1-yl)ethanol]	≤ 10 nM
Cn1cc(-c2ccncc2)c(-c2ccc(C#Cc3ncc4ccccc4n3)cc2)n1 [Example 2, 2-((4-(1-methyl-4-(pyridin-4-yl)-1H-pyrazol-3-yl)phenyl)ethynyl)quinazoline]	≤ 10 nM
Cn1ncc(-c2ccc(C#Cc3ccc4ccccc4n3)cc2)c1-c1ccncc1 [Example 37, 2-((4-(1-methyl-5-(pyridin-4-yl)-1H-pyrazol-4-yl)phenyl)ethynyl)quinoline]	10 to 100 nM
FCCn1cc(-c2ccncc2)c(-c2ccc(C#Cc3ccc4ccccc4n3)nc2)n1 [Example 32, 2-((5-(1-(2-fluoroethyl)-4-(pyridin-4-yl)-1H-pyrazol-3-yl)pyridin-2-yl)ethynyl)quinoline]	≤ 10 nM
Cn1cc(-c2ccncc2)c(-c2ccc(C#Cc3cccc(C(F)(F)F)n3)cc2)n1 [Example 8, 2-((4-(1-methyl-4-(pyridin-4-yl)-1H-pyrazol-3-yl)phenyl)ethynyl)-6-(trifluoromethyl)pyridine]	100 to 1000 nM
Cn1cc(-c2ccc(C#Cc3ccc4ccccc4n3)cc2)c(-c2ccncc2)n1 [Example 36, 2-((4-(1-methyl-3-(pyridin-4-yl)-1H-pyrazol-4-yl)phenyl)ethynyl)quinoline]	≤ 10 nM
FCCn1cc(-c2ccncc2)c(-c2ccc(C#Cc3ccc4ccccc4n3)cc2)n1 [Example 19, 2-((4-(1-(2-fluoroethyl)-4-(pyridin-4-yl)-1H-pyrazol-3-yl)phenyl)ethynyl)quinoline]	≤ 10 nM
Cn1cc(-c2ccncn2)c(-c2ccc(C#Cc3ccc4ccccc4n3)cc2)n1 [Example 26]	10 to 100 nM
Cn1cc(-c2ccncc2)c(-c2ccc(C#Cc3cccc(C4CC4)n3)cc2)n1 [Example 5, 2-cyclopropyl-6-((4-(1-methyl-4-(pyridin-4-yl)-1H-pyrazol-3-yl)phenyl)ethynyl)pyridine]	10 to 100 nM

SMILES	IC50
C(#Cc1ccc2ccccc2n1)c1ccc(-c2nn(C3CC3)cc2-c2ccncc2)cc1 [Example 12, 2-((4-(1-cyclopropyl-4-(pyridin-4-yl)-1H-pyrazol-3-yl)phenyl)ethynyl)quinoline]	≤ 10 nM
C(#Cc1ccc2ccccc2n1)c1ccc(-c2ncncc2-c2ccncc2)cc1 [Example 20, 2-((4-(5-(pyridin-4-yl)pyrimidin-4-yl)phenyl)ethynyl)quinoline]	10 to 100 nM
Cn1cc(-c2ccncc2)c(-c2ccc(C#Cc3ccc4ccccc4n3)nc2)n1 [Example 24, 2-(5-(1-methyl-4-pyridin-4-yl-1H-pyrazol-3-yl)pyridin-2-ylethynyl)quinoline]	≤ 10 nM
Cn1cc(-c2ccncc2)c(-c2ccc(C#Cc3ccc(C(F)(F)F)cn3)cc2)n1 [Example 9, 2-((4-(1-methyl-4-(pyridin-4-yl)-1H-pyrazol-3-yl)phenyl)ethynyl)-5-(trifluoromethyl)pyridine]	100 to 1000 nM
CN(C)CCn1cc(-c2ccncc2)c(-c2ccc(C#Cc3ccc4ccccc4n3)cc2)n1 [Example 17, N,N-dimethyl-2-(4-(pyridine-4-yl)-3-(4-(quinolin-2-ylethynyl)phenyl)-1H-pyrazol-1-yl)ethanamine]	≤ 10 nM
Cc1ccc(C#Cc2ccc(-c3nn(C)cc3-c3ccncc3)cc2)nc1 [Example 6]	≤ 10 nM
COc1ccc(-c2cn(C)nc2-c2ccc(C#Cc3ccc4ccccc4n3)cc2)cc1 [Example 33, 2-((4-(4-(4-methoxyphenyl)-1-methyl-1H-pyrazol-3-yl)phenyl)ethynyl)quinoline]	10 to 100 nM
Cn1cc(-c2ccncc2)c(-c2ccc(C#Cc3ccc4ccccc4n3)cc2)n1 [Example 1, 2-((4-(1-methyl-4-(pyridin-4-yl)-1H-pyrazol-3-yl)phenyl)ethynyl)quinoline]	≤ 10 nM
CNCCn1cc(-c2ccncc2)c(-c2ccc(C#Cc3ccc4ccccc4n3)cc2)n1 [Example 14, N-methyl-2-(4-(pyridin-4-yl)-3-(4-(quinolin-2-ylethynyl)phenyl)-1H-pyrazol-1-yl)ethanamine]	≤ 10 nM
Cn1cc(-c2ccncc2)c(-c2ccc(C#Cc3ccc4ccccc4n3)cn2)n1 [Example 27, 2-((6-(1-methyl-4-(pyridin-4-yl)-1H-pyrazol-3-yl)pyridin-3-yl)ethynyl)quinoline]	≤ 10 nM
CCn1cc(-c2ccncc2)c(-c2ccc(C#Cc3ccc4ccccc4n3)cc2)n1 [Example 15, 2-((4-(1-ethyl-4-(pyridin-4-yl)-1H-pyrazol-3-yl)phenyl)ethynyl)quinoline]	≤ 10 nM
C(#Cc1ccc2ccccc2n1)c1ccc(-n2ncnc2-c2ccncc2)cc1 [Example 21, 2-((4-(5-(pyridin-4-yl)-1H-1,2,4-triazol-1-yl)phenyl)ethynyl)quinoline]	10 to 100 nM
Cn1cc(-c2ccncc2)c(-c2ccc(C#Cc3ccc4ccccc4n3)cc2F)n1 [Example 25, 2-((3-fluoro-4-(1-methyl-4-(pyridin-4-yl)-1H-pyrazol-3-yl)phenyl)ethynyl)quinoline]	≤ 10 nM
Cn1cc(-c2ccncc2)c(-c2ccc(C#Cc3ccc(C4CC4)cn3)cc2)n1 [Example 7, 5-cyclopropyl-2-((4-(1-methyl-4-(pyridin-4-yl)-1H-pyrazol-3-yl)phenyl)ethynyl)pyridine]	≤ 10 nM
COc1cccc(C#Cc2ccc(-c3nn(C)cc3-c3ccncc3)cc2)n1 [Example 10, 2-methoxy-6-((4-(1-methyl-4-(pyridin-4-yl)-1H-pyrazol-3-yl)phenyl)ethynyl)pyridine]	≤ 10 nM
C(#Cc1ccc2ccccc2n1)c1ccc(-c2ccnn2-c2ccncc2)cc1 [Example 28, 2-((4-(1-(pyridin-4-yl)-1H-pyrazol-5-yl)phenyl)ethynyl)quinoline]	≤ 10 nM
Cc1cccc(C#Cc2ccc(-c3nn(C)cc3-c3ccncc3)cc2)n1 [Example 3]	≤ 10 nM
